# Data from patent US12281114B2, “NK3 modulators and uses thereof” (Kallyope, Inc., priority 2023, dated 2025).
# Target: T1, human NK3 (Homo sapiens, UniProt P29371)
# T1 sequence (P29371 1-465): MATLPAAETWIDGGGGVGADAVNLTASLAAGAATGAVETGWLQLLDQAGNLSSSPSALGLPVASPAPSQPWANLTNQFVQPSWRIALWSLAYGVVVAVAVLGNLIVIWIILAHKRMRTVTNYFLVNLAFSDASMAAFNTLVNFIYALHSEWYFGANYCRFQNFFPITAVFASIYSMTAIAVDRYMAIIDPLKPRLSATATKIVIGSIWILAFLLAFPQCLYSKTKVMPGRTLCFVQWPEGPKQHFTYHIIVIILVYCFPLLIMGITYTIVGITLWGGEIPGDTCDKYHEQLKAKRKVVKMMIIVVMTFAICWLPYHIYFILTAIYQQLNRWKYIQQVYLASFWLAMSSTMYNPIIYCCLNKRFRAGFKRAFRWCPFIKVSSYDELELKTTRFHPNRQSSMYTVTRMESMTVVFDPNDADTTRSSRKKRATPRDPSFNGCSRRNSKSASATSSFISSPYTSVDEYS
# Assay: FLIPR calcium assay in antagonist mode (NKB EC70 challenge)
# Assay type: cell-based
# Conditions: stable cell line expressing human recombinant NK3; antagonist mode vs EC70 of NKB agonist
# Procedure: Stable Cell Lines: A human recombinant NK3 Tachykinin Receptor stable cell line was purchased from GenScript (Genscript, Cat. #M00201; GenBank Accession Number NM 001059). The cell line was cultured according to manufacturer instructions, using 100 μg/mL Hygromycin B (Invitrogen, Cat. #D2650) for selective pressure. Cells were then collected using 0.05% Trypsin-EDTA (GIBCO, Cat. #25300) and frozen in a freezing media containing 90% FBS (Gibco, Cat. #10099-141) and 10% DMSO (Sigma, Cat. #D2650) at a density of 30×10^6 cells/mL. This bank of assay-ready frozen cells was later used in FLIPR assays to evaluate the potency and efficacy of NK3 antagonist test compounds.
# FLIPR Calcium Assay: The FLIPR assay, used to measure changes in intracellular calcium levels, was performed in a 384-well plate format using the FLIPR Calcium 6 assay kit (Molecular Devices, Cat. #R8190). Assay-ready frozen cells expressing human NK3 (Genscript, Cat. #M00201) were thawed, washed, trypsinized, counted using a ViCell, and plated in cell growth media without Hygromycin at a density of […] (40 μL/well).
# Calculation of NKB EC70: An EC70 concentration of NKB needed to be determined for competition against test antagonists prior to the compound screen. NKB agonist (Phoenix Pharmaceuticals, Cat. #046-26) was diluted in DMSO at 1800 nM (6-fold the final concentration) and serially diluted to generate a 13-point dose response curve (3-fold serial dilution) using an ECHO. 20 μL of 1× stimulation buffer was added using the BRAVO. 10 μL of DMSO was added while on the FLIPR (described as the first addition), then the RFU signal was measured for 10 minutes. The NKB titration was added to the plate, then the RFU signal was measured for 10 minutes (described as the second addition) on the FLIPR. The EC70 concentration was determined by using a four-parameter fit on GraphPad Prism prior to performing the compound screen.
# FLIPR Screen in Antagonist Mode: Test compounds were prepared at 60 μM (6-fold the final concentration) and spotted in 370 nL using the Janus and ECHO. 20 μL of assay buffer was added using the BRAVO. Calcium-sensitive dye was reconstituted in loading buffer (Molecular Devices, Cat. #R8190). Media was removed from the cell plate using a Bluecat Cell Washer, and 40 μL of dye was added to the cell plate using the Apricot. The plate was incubated for 2 hours at 37° C., 5% CO2, then transferred to the FLIPR instrument. 10 μL of compound was added on the FLIPR (described as the first addition), then the RFU signal was measured for 10 minutes. EC70 of NKB agonist was added to the entire plate (described as the second addition), and the RFU signal was measured for 10 minutes on the FLIPR. RFU (relative fluorescence units) signals for first baseline, first peak, second baseline, and second peak were measured using the FLIPR. RFU signal (second peak minus second baseline) for positive (Max, at 10 μM antagonist) and negative (Min, at 0 μM antagonist) controls were used to normalize data and generate values for % Activity. IC50 and efficacy values were determined using a standard curve fitting equation on Dotmatics.
row,IC50,SMILES
1,3.57 nM,C[C@H]1C[C@H](NC(=O)c2ccn3c(Cl)c(-c4c(F)cc(F)cc4-c4c[nH]nc4F)nc3c2)C1 [Compound 847]
2,22.4 nM,Cc1nn(C)cc1-c1ccccc1-c1nc2cc(C(=O)N3C[C@@H]4NCCN[C@@H]4C3)ccn2c1Cl [Compound 798]
3,2.83 nM,"Cn1cc(-c2cc(F)cc(F)c2-c2nc3cc(C(=O)N[C@H]4C[C@](O)(CO)C4)ccn3c2Cl)c(F)n1 [Compound 922, 3-chloro-2-(2,4-difluoro-6-(3-fluoro-1-methyl-1H-pyrazol-4-yl)phenyl)-N-((1s,3s)-3-hydroxy-3-(hydroxymethyl)cyclobutyl)imidazo[1,2-a]pyridine-7-carboxamide]"
4,2.66 nM,Cn1cc(-c2ccc(F)c(F)c2-c2nc3cc(C(=O)N[C@H]4C[C@](C)(O)C4)ccn3c2Cl)c(F)n1 [Compound 927]
5,0.97 nM,"Cn1cc(-c2cccc(F)c2-c2nc3cc(C(=O)N[C@H]4CC[C@H](CO)OC4)ccn3c2Cl)c(F)n1 [Compound 924, 3-chloro-2-(2-fluoro-6-(3-fluoro-1-methyl-1H-pyrazol-4-yl)phenyl)-N-((3S,6R)-6-(hydroxymethyl)tetrahydro-2H-pyran-3-yl)imidazo[1,2-a]pyridine-7-carboxamide]"
6,12.5 nM,Cn1cc(-c2ccccc2-c2nc3cc(C(=O)N4C[C@@H]5C[C@H]4C(=O)N5)ccn3c2Cl)c(C#N)n1 [Compound 795]
7,0.59 nM,Cc1nn(C)cc1-c1ccccc1-c1nc2cc(C(=O)NCC34CC(CO)(CCO3)C4)ccn2c1Cl [Compound 624]
8,9.16 nM,Cc1nn(C)cc1-c1ccccc1-c1nc2cc(C(=O)N3C[C@@H]4[C@@H](O)[C@@H]4C3)ccn2c1Cl [Compound 647]
9,1.19 nM,Cc1nn(C)cc1-c1ccccc1-c1nc2cc(C(=O)N[C@H]3C[C@H](C(C)(C)O)C3)ccn2c1Cl [Compound 793]
10,3.31 nM,"CC12CC(NC(=O)c3ccn4c(Cl)c(-c5c(F)cc(F)cc5-c5c[nH]nc5F)nc4c3)(CO1)C2 [Compound 790, 3-chloro-2-(2,4-difluoro-6-(3-fluoro-1H-pyrazol-4-yl)phenyl)-N-(1-methyl-2-oxabicyclo[2.1.1]hexan-4-yl)imidazo[1,2-a]pyridine-7-carboxamide]"
11,0.31 nM,Cn1cc(-c2cccc(F)c2-c2nc3cc(C(=O)NCC45CC(CO)(CCO4)C5)ccn3c2Cl)c(F)n1 [Compound 850]
12,2.78 nM,Cc1nc(N)ccc1CNC(=O)c1ccn2c(Cl)c(-c3ccccc3-c3cn(C)nc3C)nc2c1 [Compound 759]
13,1.47 nM,Cc1nn(C)cc1-c1ccccc1-c1nc2cc(C(=O)N3C[C@@H]4C[C@H]3C(=O)N4)ccn2c1Cl [Compound 434]
14,25.8 nM,Cc1nn(C)cc1-c1ccccc1-c1nc2cc(C(=O)N3CC(=O)N[C@@H](CO)C3)ccn2c1Cl [Compound 638]
15,2.5 nM,Cc1nn(C)cc1-c1ccccc1-c1nc2cc(C(=O)NC34COC(CO)(C3)C4)ccn2c1Cl [Compound 615]
16,1.04 nM,Cc1nn(C)cc1-c1ccccc1-c1nc2cc(C(=O)N[C@H]3C[C@H](CO)C3)ccn2c1Cl [Compound 641]
17,7.13 nM,CC(=O)NCCNC(=O)c1ccn2c(Cl)c(-c3ccccc3-c3cn(C)nc3C)nc2c1 [Compound 451]
18,22 nM,Cc1c(-c2ccccc2-c2nc3cc(C(=O)N[C@@H]4CO[C@H]5[C@@H]4OC[C@H]5O)ccn3c2Cl)cnn1CC1CC1 [Compound 801]
19,0.42 nM,Cn1cc(-c2cccc(F)c2-c2nc3cc(C(=O)NC[C@H]4C[C@@](C)(O)C4)ccn3c2Cl)c(F)n1 [Compound 844]
20,5.66 nM,"Cn1cc(-c2ccc(F)c(F)c2-c2nc3cc(C(=O)N4CCOCC4)ccn3c2Cl)c(F)n1 [Compound 933, (3-chloro-2-(2,3-difluoro-6-(3-fluoro-1-methyl-1H-pyrazol-4-yl)phenyl)imidazo[1,2-a]pyridin-7-yl)(morpholino)methanone]"
21,2.49 nM,C[C@]1(O)C[C@H](NC(=O)c2ccn3c(Cl)c(-c4ccccc4-c4cn(C(F)(F)F)nc4Cl)nc3c2)C1 [Compound 821]

row,IC50,SMILES
1,4.8 nM,Cc1nn(C)cc1-c1cccc(F)c1-c1nc2cc(C(=O)N[C@H]3CO[C@H]4[C@@H]3OC[C@H]4O)ccn2c1C#N [Compound 782]
2,0.3 nM,Cn1cc(-c2cccc(F)c2-c2nc3cc(C(=O)N[C@H]4C[C@](C)(O)C4)ccn3c2Cl)c(F)n1 [Compound 828]
3,6.6 nM,Cc1c(-c2ccccc2-c2nc3cc(C(=O)N[C@@H]4CO[C@H]5[C@@H]4OC[C@H]5O)ccn3c2Cl)cnn1C [Compound 142]
4,6.01 nM,O=C(NCC1(O)COC1)c1ccn2c(F)c(-c3c(F)cc(F)cc3-c3c[nH]nc3Cl)nc2c1 [Compound 834]
5,2.65 nM,Cc1nn(C)cc1-c1ccccc1-c1nc2cc(C(=O)NCCS(N)(=O)=O)ccn2c1Cl [Compound 614]
6,8.27 nM,CC1(O)CCN(C(=O)c2ccn3c(Cl)c(-c4c(F)cc(F)cc4-c4c[nH]nc4F)nc3c2)CC1 [Compound 829]
7,2.3 nM,Cc1nn(C)cc1-c1ccccc1-c1nc2cc(C(=O)NC34CC(O)(C3)C4)ccn2c1Cl [Compound 430]
8,5.83 nM,Cc1nn(C)cc1-c1ccccc1-c1nc2cc(C(=O)NCC3(O)COC3)ccn2c1Cl [Compound 650]
9,0.97 nM,Cn1cc(-c2cccc(F)c2-c2nc3cc(C(=O)NC4CC5(CC(O)C5)C4)ccn3c2Cl)c(F)n1 (stereo not drawn) [Compound 853]
10,0.97 nM,O=C(N[C@@H]1C[C@@H](O)[C@@H](O)C1)c1ccn2c(Cl)c(-c3c(F)cccc3-c3cn(C4CC4)nc3F)nc2c1 [Compound 852]
11,2.21 nM,Cc1nn(C)cc1-c1cccc(F)c1-c1nc2cc(C(=O)N3C[C@@H]4C[C@H]3C(=O)N4)ccn2c1Cl [Compound 487]
12,5.21 nM,Cc1nn(C)cc1-c1ccccc1-c1nc2cc(C(=O)N[C@H]3CO[C@H]4[C@@H]3OC[C@@H]4O)ccn2c1C#N [Compound 774]
13,0.67 nM,Cn1cc(-c2cccc(F)c2-c2nc3cc(C(=O)N[C@H]4CC[C@](C)(O)CC4)ccn3c2Cl)c(F)n1 [Compound 917]
14,2.63 nM,Cc1nn(C)cc1-c1cccc(F)c1-c1nc2cc(C(=O)N[C@H]3CO[C@H]4[C@@H]3OC[C@@H]4O)ccn2c1Cl [Compound 773]
15,3.18 nM,Cc1nn(C)cc1-c1ccccc1-c1nc2cc(C(=O)N[C@H]3CO[C@H]4[C@@H]3OC[C@@H]4N)ccn2c1Cl [Compound 617]
16,1.93 nM,O=C(NC1CC(CO)(CO)C1)c1ccn2c(Cl)c(-c3c(F)cc(F)cc3-c3cnn(C4CC4)c3F)nc2c1 [Compound 851]
17,0.72 nM,"Cn1cc(-c2cccc(F)c2-c2nc3cc(C(=O)N[C@H]4C[C@@](C)(O)C4)ccn3c2Cl)c(F)n1 [Compound 791, 3-chloro-2-(2-fluoro-6-(3-fluoro-1-methyl-1H-pyrazol-4-yl)phenyl)-N-((1s,3s)-3-hydroxy-3-methylcyclobutyl)imidazo[1,2-a]pyridine-7-carboxamide]"
18,1.53 nM,Cc1nn(C)cc1-c1ccccc1-c1nc2cc(C(=O)NC[C@]34C[C@](O)(C3)C4)ccn2c1Cl [Compound 633]
19,4.26 nM,Cc1nn(C)cc1-c1ccccc1-c1nc2cc(C(=O)N[C@H]3CO[C@H]4[C@@H]3OC[C@@H]4O)ccn2c1Cl [Compound 767]
20,5.82 nM,Cc1nn(C)cc1-c1ccccc1-c1nc2cc(C(=O)N[C@H]3CO[C@H]4[C@@H]3OC[C@H]4O)ccn2c1C [Compound 779]
21,2.9 nM,Cc1nn(C)cc1-c1cccc(F)c1-c1nc2cc(C(=O)N[C@@H]3CO[C@H]4[C@@H]3OC[C@H]4O)ccn2c1C#N [Compound 464]
